Test results published in patent US20060173048A1, “Imidazole derivatives” (priority 2005, published 2006).

Row | Compound | melting point [°C]
1 | Cc1ccc(-c2c(-c3ccncc3)nc(-c3c(C)cc(C)cc3C)n2C)cc1 [Example 2, 4-[1-Methyl-5-(4-methyl-phenyl)-2-(2,4,6-trimethyl-phenyl)-1H-imidazol-4-yl]-pyridine] | 204 to 207
2 | CCn1c(-c2c(C)cc(C)cc2C)nc(-c2ccncc2)c1-c1ccc(C)cc1 [Example 4, 4-[1-Ethyl-5-(4-methyl-phenyl)-2-(2,4,6-trimethyl-phenyl)-1H-imidazol-4-yl]-pyridine] | 137 to 140
3 | CCn1c(-c2c(Cl)cccc2Cl)nc(-c2ccncc2)c1-c1ccc(Cl)cc1 [Example 5, 4-[5-(4-Chloro-phenyl)-2-(2,6-dichloro-phenyl)-1-ethyl-1H-imidazol-4-yl]-pyridine] | 193 to 196
4 | CCn1c(-c2c(C)cc(C)cc2C)nc(-c2ccncc2)c1-c1ccc(Cl)cc1Cl [Example 6, 4-[1-Ethyl-5-(2,4-dichloro-phenyl)-2-(2,4,6-trimethyl-phenyl)-1H-imidazol-4-yl]-pyridine] | 191 to 193
5 | CCn1c(-c2c(C)cc(C)cc2C)nc(-c2ccncc2)c1-c1ccc(C(C)(C)C)cc1 [Example 7, 4-[5-(4-tert-Butyl-phenyl)-1-ethyl-2-(2,4,6-trimethyl-phenyl)-1H-imidazol-4-yl]-pyridine] | 202 to 205
6 | CCn1c(-c2ccccc2C)nc(-c2ccncc2)c1-c1ccc(Cl)cc1 [Example 8, 4-[5-(4-Chloro-phenyl)-1-ethyl-2-(2-methyl-phenyl)-1H-imidazol-4-yl]-pyridine] | 173 to 175
7 | CCn1c(-c2ccccc2)nc(-c2ccncc2)c1-c1ccc(Cl)cc1 [Example 9, 4-[5-(4-Chloro-phenyl)-1-ethyl-2-phenyl-1H-imidazol-4-yl]-pyridine] | 267 to 270
8 | CCn1c(-c2c(C)cc(C)cc2C)nc(-c2ccncc2)c1-c1ccc(C(F)(F)F)cc1 [Example 13, 4-[1-Ethyl-5-(4-trifluoromethyl-phenyl)-2-(2,4,6-trimethyl-phenyl)-1H-imidazol-4-yl]-pyridine] | 227 to 228
9 | CCn1c(-c2c(C)cccc2C)nc(-c2ccncc2)c1-c1ccc(Cl)cc1 [Example 14, 4-[5-(4-Chloro-phenyl)-2-(2,6-dimethyl-phenyl)-1-ethyl-1H-imidazol-4-yl]-pyridine] | 171 to 173
10 | CCn1c(-c2ccccc2Br)nc(-c2ccncc2)c1-c1ccc(Cl)cc1 [Example 16, 4-[2-(2-Bromo-phenyl)-5-(4-chloro-phenyl)-1-ethyl-1H-imidazol-4-yl]-pyridine] | 144 to 147
11 | C=CCn1c(-c2c(C)cc(C)cc2C)nc(-c2ccncc2)c1-c1ccc(C(F)(F)F)cc1 [Example 20, 4-[1-Allyl-5-(4-trifluoromethyl-phenyl)-2-(2,4,6-trimethyl-phenyl)-1H-imidazol-4-yl]-pyridine] | 209 to 210
12 | C=CCn1c(-c2c(C)cc(C)cc2C)nc(-c2ccncc2)c1-c1ccc(Cl)cc1 [Example 21, 4-[1-Allyl-5-(4-chloro-phenyl)-2-(2,4,6-trimethyl-phenyl)-1H-imidazol-4-yl]-pyridine] | 151 to 154
13 | C=CCn1c(-c2c(C)cc(C)cc2C)nc(-c2ccncc2)c1-c1ccc(C)cc1 [Example 23, 4-[1-Allyl-5-(4-methyl-phenyl)-2-(2,4,6-trimethyl-phenyl)-1H-imidazol-4-yl]-pyridine] | 115 to 118
14 | CCn1c(-c2ccc(C(F)(F)F)cc2C(F)(F)F)nc(-c2ccncc2)c1-c1ccc(Cl)cc1 [Example 30, 4-[2-(2,4-Bis-trifluoromethyl-phenyl)-5-(4-chloro-phenyl)-1-ethyl-1H-imidazol-4-yl]-pyridine] | 148 to 150
15 | CCC(CC)c1nc(-c2ccncc2)c(-c2ccc(Cl)cc2)n1C [Example 36, 4-[5-(4-Chloro-phenyl)-2-(1-ethyl-propyl)-1-methyl-1H-imidazol-4-yl]-pyridine] | 100 to 102
16 | CCn1c(C(c2ccccc2)c2ccccc2)nc(-c2ccncc2)c1-c1ccc(Cl)cc1 [Example 39, 4-[2-Benzhydryl-5-(4-chloro-phenyl)-1-ethyl-1H-imidazol-4-yl]-pyridine] | 199 to 200
17 | CCn1c(C(O)(C(C)C)C(C)C)nc(-c2ccncc2)c1-c1ccc(Cl)cc1 [Example 41, 3-[5-(4-Chloro-phenyl)-1-ethyl-4-pyridin-4-yl-1H-imidazol-2-yl]-2,4-dimethyl-pentan-3-ol] | 221 to 223
18 | CCn1c(C(O)(c2ccccc2)c2ccccc2)nc(-c2ccncc2)c1-c1ccc(Cl)cc1 [Example 44, [5-(4-Chloro-phenyl)-1-ethyl-4-pyridin-4-yl-1H-imidazol-2-yl]-diphenyl-methanol] | 222 to 223
19 | CCn1c(C(O)(c2cccc(C(F)(F)F)c2)c2cccc(C(F)(F)F)c2)nc(-c2ccncc2)c1-c1ccc(Cl)cc1 [Example 45, [5-(4-Chloro-phenyl)-1-ethyl-4-pyridin-4-yl-1H-imidazol-2-yl]-bis-(3-trifluoromethyl-phenyl)-methanol] | 193 to 195
20 | CCn1c(C(O)(c2cccc(F)c2)c2cccc(F)c2)nc(-c2ccncc2)c1-c1ccc(Cl)cc1 [Example 46, [5-(4-Chloro-phenyl)-1-ethyl-4-pyridin-4-yl-1H-imidazol-2-yl]-bis-(3-fluoro-phenyl)-methanol] | 225 to 227
21 | CCn1c(C(O)(Cc2ccccc2)Cc2ccccc2)nc(-c2ccncc2)c1-c1ccc(Cl)cc1 [Example 48, 2-[5-(4-Chloro-phenyl)-1-ethyl-4-pyridin-4-yl-1H-imidazol-2-yl]-1,3-diphenyl-propan-2-ol] | 116 to 117
22 | CCCn1c(-c2c(C)cc(C)cc2C)nc(-c2ccncc2)c1-c1ccc(C)cc1 [Example 51, 4-[1-Propyl-5-(4-methyl-phenyl)-2-(2,4,6-trimethyl-phenyl)-1H-imidazol-4-yl]-pyridine] | 134 to 136
23 | CCn1c(C(OCCO)(c2cccc(C(F)(F)F)c2)c2cccc(C(F)(F)F)c2)nc(-c2ccncc2)c1-c1ccc(Cl)cc1 [Example 52, 2-[[5-(4-Chloro-phenyl)-1-ethyl-4-pyridin-4-yl-1H-imidazol-2-yl]-bis-(3-trifluoromethyl-phenyl)-methoxy]-ethanol] | 222 to 223

The remaining lines, values ahead:

Row | melting point [°C] | Compound
24 | 214 to 217 | Cc1ccc(-c2c(-c3ccncc3)nc(-c3c(Cl)cccc3Cl)n2C)cc1 [Example 1, 4-[2-(2,6-Dichloro-phenyl)-1-methyl-5-(4-methyl-phenyl)-1H-imidazol-4-yl]-pyridine]
25 | 194 to 196 | CCn1c(-c2c(C)cc(C)cc2C)nc(-c2ccncc2)c1-c1ccc(F)cc1 [Example 10, 4-[1-Ethyl-5-(4-fluoro-phenyl)-2-(2,4,6-trimethyl-phenyl)-1H-imidazol-4-yl]-pyridine]
26 | 226 to 227 | CCn1c(-c2c(C)cc(C)cc2C)nc(-c2ccncc2)c1-c1ccc(Cl)cc1 [Example 12, 4-[5-(4-Chloro-phenyl)-1-ethyl-2-(2,4,6-trimethyl-phenyl)-1H-imidazol-4-yl]-pyridine]
27 | 144 to 147 | CCn1c(-c2ccccc2Cl)nc(-c2ccncc2)c1-c1ccc(Cl)cc1 [Example 15, 4-[5-(4-Chloro-phenyl)-2-(2-chloro-phenyl)-1-ethyl-1H-imidazol-4-yl]-pyridine]
28 | 188 to 190 | CCn1c(-c2c(C)cccc2Cl)nc(-c2ccncc2)c1-c1ccc(Cl)cc1 [Example 17, 4-[2-(2-Chloro-6-methyl-phenyl)-5-(4-chloro-phenyl)-1-ethyl-1H-imidazol-4-yl]-pyridine]
29 | 255 to 256 | CCn1c(-c2c(OC)cc(OC)cc2OC)nc(-c2ccncc2)c1-c1ccc(Cl)cc1 [Example 18, 4-[5-(4-Chloro-phenyl)-1-ethyl-2-(2,4,6-trimethoxy-phenyl)-1H-imidazol-4-yl]-pyridine]
30 | 163 to 165 | C=CCn1c(-c2c(Cl)cccc2Cl)nc(-c2ccncc2)c1-c1ccc(Cl)cc1 [Example 22, 4-[1-Allyl-5-(4-chloro-phenyl)-2-(2,6-dichloro-phenyl)-1H-imidazol-4-yl]-pyridine]
31 | 213 to 214 | FC(F)(F)Cn1c(-c2c(Cl)cccc2Cl)nc(-c2ccncc2)c1-c1ccc(Cl)cc1 [Example 25, 4-[5-(4-Chloro-phenyl)-2-(2,6-dichloro-phenyl)-1-(2,2,2-trifluoro-ethyl)-1H-imidazol-4-yl]-pyridine]
32 | 233 to 235 | OCCCn1c(-c2c(Cl)cccc2Cl)nc(-c2ccncc2)c1-c1ccc(Cl)cc1 [Example 29, 3-[5-(4-Chloro-phenyl)-2-(2,6-dichloro-phenyl)-4-pyridin-4-yl-imidazol-1-yl]-propan-1-ol]
33 | 167 to 169 | CCn1c(-c2ccnc3ccccc23)nc(-c2ccncc2)c1-c1ccc(Cl)cc1 [Example 32, 4-[5-(4-Chloro-phenyl)-1-ethyl-4-pyridin-4-yl-1H-imidazol-2-yl]-quinoline]
34 | 279 to 280 | CCn1c(-c2cc3ccccc3[nH]2)nc(-c2ccncc2)c1-c1ccc(Cl)cc1 [Example 33, 2-[5-(4-Chloro-phenyl)-1-ethyl-4-pyridin-4-yl-1H-imidazol-2-yl]-1H-indole]
35 | 159 to 160 | C=CCC(O)(CC=C)c1nc(-c2ccncc2)c(-c2ccc(Cl)cc2)n1CC [Example 42, 4-[5-(4-Chloro-phenyl)-1-ethyl-4-pyridin-4-yl-1H-imidazol-2-yl]-hepta-1,6-dien-4-ol]
36 | 220 to 222 | CCCn1c(-c2c(Cl)cccc2Cl)nc(-c2ccncc2)c1-c1ccc(Cl)cc1 [Example 49, 4-[5-(4-Chloro-phenyl)-2-(2,6-dichloro-phenyl)-1-propyl-1H-imidazol-4-yl]-pyridine]
37 | 200 to 201 | CCCn1c(-c2c(Cl)cccc2Cl)nc(-c2ccncc2)c1-c1ccc(C)cc1 [Example 50, 4-[2-(2,6-Dichloro-phenyl)-1-propyl-5-(4-methyl-phenyl)-1H-imidazol-4-yl]-pyridine]
38 | 184 to 186 | CCn1c(C(c2cccc(F)c2)c2cccc(F)c2)nc(-c2ccncc2)c1-c1ccc(Cl)cc1 [Example 53, 4-[2-[Bis-(3-fluoro-phenyl)-methyl]-5-(4-chloro-phenyl)-1-ethyl-1H-imidazol-4-yl]-pyridine]
